The values that follow come from US8008505B2, “Indazole or 4,5,6,7-tetrahydro-indazole derivatives” (Hoffmann-La Roche Inc., priority 2008, dated 2011).

Structures are written as SMILES.

This assay has as its target T1, FXR ligand binding domain (Homo sapiens, UniProt Q96RI1).
T1 sequence (Q96RI1 1-486): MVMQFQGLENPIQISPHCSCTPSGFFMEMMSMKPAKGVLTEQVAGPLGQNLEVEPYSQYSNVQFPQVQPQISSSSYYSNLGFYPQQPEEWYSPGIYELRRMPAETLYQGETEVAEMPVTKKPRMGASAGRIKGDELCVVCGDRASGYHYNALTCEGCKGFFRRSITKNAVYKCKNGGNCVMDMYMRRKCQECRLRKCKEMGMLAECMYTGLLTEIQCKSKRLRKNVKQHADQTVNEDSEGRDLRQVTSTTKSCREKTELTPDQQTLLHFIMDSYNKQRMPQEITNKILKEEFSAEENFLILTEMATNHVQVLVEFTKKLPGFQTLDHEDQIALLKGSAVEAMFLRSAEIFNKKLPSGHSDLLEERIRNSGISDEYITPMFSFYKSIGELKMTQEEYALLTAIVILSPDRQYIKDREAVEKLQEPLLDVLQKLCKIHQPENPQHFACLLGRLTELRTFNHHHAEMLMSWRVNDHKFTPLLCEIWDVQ
Put plainly: Radioligand binding assay (radioligand displacement, scintillation proximity). The note with it: GST-FXR LBD fusion protein on SPA beads, radioligand 2,N-dicyclohexyl-2-[2-(2,4 dimethoxy-phenyl)-benzoimidazol-1-yl]-acetamide, RT 30 minutes. On the procedure:
The following tests were carried out in order to determine the activity of the compounds of formula I. Background information on the binding assay can be found in: Nichols J S et al. “Development of a scintillation proximity assay for peroxisome proliferator-activated receptor gamma ligand binding domain”, (1998) Anal. Biochem. 257: 112-119.
Bacterial and mammalian expression vectors were constructed to produce glutathione-s-transferase (GST) and Gal4 DNA binding domain (GAL) proteins fused to the ligand binding domain (LBD) of human FXR (aa 193-473). To accomplish this, the portions of the sequences encoding the FXR LBD were amplified by polymerase chain reaction (PCR) from a full-length clone by PCR and then subcloned into the plasmid vectors. The final clone was verified by DNA sequence analysis.
The induction, expression, and subsequent purification of GST-LBD fusion protein was performed in E. coli strain BL21(pLysS) cells by standard methods (Current Protocols in Molecular Biology, Wiley Press, ed. Ausubel et al).
Radioligand Binding Assay
Binding of test substances to the FXR ligand binding domain was assessed in a radioligand displacement assay. The assay was performed in a buffer consisting of 50 mM Hepes, pH 7.4, 10 mM NaCl, 5 mM MgCl2. For each reaction well in a 96-well plate, 40 nM of GST-FXR LBD fusion protein was bound to 10 μg glutathione ytrium silicate SPA beads (Pharmacia Amersham) in a final volume of 50 μl by shaking. A radioligand (eg. 40 nM) of 2,N-dicyclohexyl-2-[2-(2,4 dimethoxy-phenyl)-benzoimidazol-1-yl]-acetamide) was added, and the reaction incubated at RT for 30 minutes in the presence of test compounds followed by scintillation proximity counting. All binding assays were performed in 96-well plates and the amount of bound ligand was measured on a Packard TopCount using OptiPlates (Packard). Dose response curves were performed within a range of concentration from 6×10^−9 M to 2.5×10^−5 M.
For orientation: IC50 means the concentration that inhibits the measured activity by half. A low value points to greater potency. For `N#Cc1ccc(OCC(c2c3c(nn2-c2ccc(Cl)cc2)CCCC3)C2CCCCC2)c(F)c1` (racemic) [Example 37, [rac]-4-{2-[2-(4-Chloro-phenyl)-4,5,6,7-tetrahydro-2H-indazol-3-yl]-2-cyclohexyl-ethoxy}-3-fluoro-benzonitrile], the IC50 came to 3.48 µM.

As for `O=C(Nc1ccc(-c2nnn[nH]2)cc1F)C(c1c2c(nn1-c1ccc(Cl)cc1)CCCC2)C1CCCCC1` (racemic) [Example 58, [rac]-2-[2-(4-Chloro-phenyl)-4,5,6,7-tetrahydro-2H-indazol-3-yl]-2-cyclohexyl-N-[2-fluoro-4-(1H-tetrazol-5-yl)-phenyl]-acetamide], the IC50 was determined as 0.053 µM. With `O=C(Nc1ccc(F)cc1F)C(c1c2c(nn1-c1ccc(Cl)cc1)CCCC2)C1CCCCC1` (racemic) [Example 14, [rac]-2-[2-(4-Chloro-phenyl)-4,5,6,7-tetrahydro-2H-indazol-3-yl]-2-cyclohexyl-N-(2,4-difluoro-phenyl)-acetamide], the IC50 worked out at 2.83 µM. With `O=C(O)C1(Oc2ccc(OC(c3c4cc(F)c(F)cc4nn3-c3ccc(Cl)cc3)C3CCCCC3)cc2)CC1` (racemic) [Example 56, [rac]-1-(4-{[2-(4-Chloro-phenyl)-5,6-difluoro-2H-indazol-3-yl]-cyclohexyl-methoxy}-phenoxy)-cyclopropanecarboxylic acid] the figure was 0.17 µM. Turning to `O=C(NC1CCCC1)C(c1c2c(nn1-c1ccc(Cl)cc1)CCCC2)C1CCCCC1` (stereo not shown) [Example 8, 2-[2-(4-Chloro-phenyl)-4,5,6,7-tetrahydro-2H-indazol-3-yl]-2-cyclohexyl-N-cyclopentyl-acetamide], the IC50 is 1.06 µM. This IC50 is about 6.2-fold higher than that of the molecule before. In turn, `Fc1cc2nn(-c3ccc(Cl)cc3)c(C(COc3ccc(-c4nnn[nH]4)cc3F)C3CCCCC3)c2cc1F` (racemic) [Example 36, [rac]-2-(4-Chloro-phenyl)-3-{1-cyclohexyl-2-[2-fluoro-4-(2H-tetrazol-5-yl)-phenoxy]-ethyl}-5,6-difluoro-2H-indazole] gave an IC50 of 0.4 µM. Regarding `O=C(O)c1ccc(NC(=O)C(c2c3ccccc3nn2-c2ccc(Cl)cc2)C2CCCCC2)cc1` (stereo not shown) [Example 12, 4-{2-[2-(4-Chloro-phenyl)-2H-indazol-3-yl]-2-cyclohexyl-acetylamino}-benzoic acid], the IC50 is 7.3 µM. With `O=C(O)c1ccc(NC(=O)C(c2c3ccccc3nn2-c2ccc(Cl)cc2)C2CCCCC2)c(F)c1` (stereo not shown) [Example 13, 4-{2-[2-(4-Chloro-phenyl)-2H-indazol-3-yl]-2-cyclohexyl-acetylamino}-3-fluoro-benzoic acid] the figure was 4.9 µM; with `COC(=O)c1ccc(COC(c2c3ccccc3nn2-c2ccc(Cl)cc2)C2CCCCC2)cc1` (racemic) [Example 17], 7.54 µM; with `Fc1cc2nn(-c3ccc(Cl)cc3)c(C(OCc3ccc(-c4nnn[nH]4)cc3)C3CCCCC3)c2cc1F` (racemic) [Example 49, [rac]-2-(4-Chloro-phenyl)-3-{cyclohexyl-[4-(2H-tetrazol-5-yl)-benzyloxy]-methyl}-5,6-difluoro-2H-indazole], 0.004 µM. With `Clc1ccc(-n2nc3c(c2C(CNc2ccc(-c4nnn[nH]4)cc2)C2CCCCC2)CCCC3)cc1` (racemic) [Example 65, [rac]-{2-[2-(4-Chloro-phenyl)-4,5,6,7-tetrahydro-2H-indazol-3-yl]-2-cyclohexyl-ethyl}-[4-(1H-tetrazol-5-yl)-phenyl]-amine] the figure was 0.004 µM; with `O=C(O)c1ccc(NC(=O)C(c2c3cc(F)c(F)cc3nn2-c2ccc(Cl)cc2)C2CCCCC2)c(F)c1` (racemic) [Example 32, [rac]-4-{2-[2-(4-Chloro-phenyl)-5,6-difluoro-2H-indazol-3-yl]-2-cyclohexyl-acetylamino}-3-fluoro-benzoic acid], 1.7 µM; with `O=C(O)c1ccc(NC(=O)C(c2c3c(nn2-c2ccc(Cl)cc2)CCCC3)C2CCCCC2)c(Cl)c1` (racemic) [Example 62, [rac]-3-Chloro-4-{2-[2-(4-chloro-phenyl)-4,5,6,7-tetrahydro-2H-indazol-3-yl]-2-cyclohexyl-acetylamino}-benzoic acid], 0.08 µM.

Molecule `O=C(O)c1ccc(NC(=O)C(c2c3c(nn2-c2ccc(Cl)cc2)CCCC3)C2CCCCC2)cc1` (stereo not shown) [Example 7, 4-{2-[2-(4-Chloro-phenyl)-4,5,6,7-tetrahydro-2H-indazol-3-yl]-2-cyclohexyl-acetylamino}-benzoic acid] gave an IC50 of 0.8 µM. With `O=C(NC1CCCCC1)C(c1c2ccccc2nn1-c1ccc(Cl)cc1)C1CCCCC1` (stereo not shown) [Example 4, 2-[2-(4-Chloro-phenyl)-2H-indazol-3-yl]-2,N-dicyclohexyl-acetamide] the figure was 1.39 µM; with `O=C(O)C1(Oc2ccc(OCC(c3c4c(nn3-c3ccc(Cl)cc3)CCCC4)C3CCCCC3)cc2)CC1` (racemic) [Example 55, [rac]-1-(4-{2-[2-(4-Chloro-phenyl)-4,5,6,7-tetrahydro-2H-indazol-3-yl]-2-cyclohexyl-ethoxy}-phenoxy)-cyclopropanecarboxylic acid], 0.042 µM; with `O=C(NC1CCCCC1)C(c1c2c(nn1-c1ccc(Cl)cc1)CCCC2)C1CCCCC1` (stereo not shown) [Example 6, 2-[2-(4-Chloro-phenyl)-4,5,6,7-tetrahydro-2H-indazol-3-yl]-2,N-dicyclohexyl-acetamide], 0.155 µM. With `Fc1cc2nn(-c3ccc(Cl)cc3)c(C(Oc3ccc(-c4nnn[nH]4)cc3F)C3CCCCC3)c2cc1F` (racemic) [Example 50, [rac]-2-(4-Chloro-phenyl)-3-{cyclohexyl-[2-fluoro-4-(1H-tetrazol-5-yl)-phenoxy]-methyl}-5,6-difluoro-2H-indazole] the figure was 0.058 µM; with `O=C(O)c1ccc(SCC(c2c3c(nn2-c2ccc(Cl)cc2)CCCC3)C2CCCCC2)cc1` (racemic) [Example 63, [rac]-4-{2-[2-(4-Chloro-phenyl)-4,5,6,7-tetrahydro-2H-indazol-3-yl]-2-cyclohexyl-ethylsulfanyl}-benzoic acid], 0.2 µM. In turn, `N#Cc1ccc(COC(c2c3c(nn2-c2ccc(Cl)cc2)CCCC3)C2CCCCC2)cc1` (racemic) [Example 44, [rac]-4-{[2-(4-Chloro-phenyl)-4,5,6,7-tetrahydro-2H-indazol-3-yl]-cyclohexyl-methoxymethyl}-benzonitrile] showed an IC50 of 5.62 µM. The figure for `O=C(Nc1ccc(OC2(C(=O)O)CC2)cc1F)C(c1c2c(nn1-c1ccc(Cl)cc1)CCCC2)C1CCCCC1` (racemic) [Example 16, [rac]-1-(4-{2-[2-(4-Chloro-phenyl)-4,5,6,7-tetrahydro-2H-indazol-3-yl]-2-cyclohexyl-acetylamino}-3-fluoro-phenoxy)-cyclopropanecarboxylic acid] is 0.223 µM; for `Cc1cc(C(=O)O)cc(C)c1OCC(c1c2c(nn1-c1ccc(Cl)cc1)CCCC2)C1CCCCC1` (racemic) [Example 40, [rac]-4-{2-[2-(4-Chloro-phenyl)-4,5,6,7-tetrahydro-2H-indazol-3-yl]-2-cyclohexyl-ethoxy}-3,5-dimethyl-benzoic acid] it is 0.36 µM; for `O=C(O)CCc1ccc(NC(=O)C(c2c3c(nn2-c2ccc(Cl)cc2)CCCC3)C2CCCCC2)c(F)c1` (racemic) [Example 61, [rac]-3-(4-{2-[2-(4-Chloro-phenyl)-4,5,6,7-tetrahydro-2H-indazol-3-yl]-2-cyclohexyl-acetylamino}-3-fluoro-phenyl)-propionic acid] it is 0.13 µM. With `Cc1cc(C(=O)O)cc(C)c1OCC(c1c2cc(F)c(F)cc2nn1-c1ccc(Cl)cc1)C1CCCCC1` (racemic) [Example 43, [rac]-4-{2-[2-[4-Chloro-phenyl]-5,6-difluoro-2H-indazol-3-yl]-2-cyclohexyl-ethoxy}-3,5-dimethyl-benzoic acid] the figure was 0.029 µM; with `COc1cccc(C(C(=O)NC2CCCCC2)c2c3ccccc3nn2-c2ccccc2)c1` (stereo not shown) [Example 2, N-Cyclohexyl-2-(3-methoxy-phenyl)-2-(2-phenyl-2H-indazol-3-yl)-acetamide], 9.17 µM.
